Experimental data: EP4663640A1 (Shanghai Institute of Materia Medica, Chinese Academy of …, priority 2023, dated 2024)
“And” between values parts separate entries of the source, which are not always exact repeats. Identical values can stand only once.

Experiments:
mice [1] = assay: Tail suspension test (antidepression); assay type: in vivo
Procedure: (§1) The drug to be tested was dissolved in DMSO: Tween 80: distilled water at a ratio of 2:2:96 (v/v/v), and then administered to mice by gavage at a volume of 10 mL/kg. […] The blank control group was only given 10 mL/kg of the above solvent.
The mouse tail suspension test (TST) is a widely used experimental method to evaluate the effectiveness of antidepressants and other psychotropic drugs. The principle of the test is to suspend a mouse by its tail and observe its behavior. The mouse will initially struggle to escape, but when it realizes that escape is impossible, it will eventually stop struggling and enter a state of immobility that indicates despair. This immobility behavior is used to measure depression-like states, and the severity of the condition is assessed by recording the duration of immobility.
The same mouse was subjected to the tail suspension test immediately after the marble burying test. A tail suspension test box was built using a black frosted acrylic board, 55 cm high, 15 cm long, and 11.5 cm wide. The three sides and top of the box were frosted blackboards, and one side was used for video recording. The mouse tail was wrapped with yellow tape 2 cm away from the tip of the tail, and the mouse was hung upside down in the middle of the top acrylic board. The tip of the mouse tail was about 3 cm away from the acrylic board, and the body was suspended and could not touch the surrounding board wall. The test time for each mouse lasted for 6 minutes, and the immobility time of the mouse during this time was counted. After the experiment, the mouse was returned to the cage, and the inside of the box and the table were wiped with alcohol to remove the smell of the previous mouse to prevent affecting the next mouse experiment. The criteria for immobility in the tail suspension test: stop struggling, no flexion or twisting of the body, no swinging of the hind limbs, and slight swinging of the forelimbs and head were also counted as immobility time.

[2] = Tissue distribution in rats; assay type: in vivo, SD rats; details: 2 hours after oral administration of 10 mg/kg, brain, heart, liver, spleen, lung, kidney, colon, muscle versus plasma (Figure 2)
Procedure: (§2) Intravenous (IV) administration: the drug to be tested was dissolved in DMSO/Solutol/normal saline at a ratio of 5:5:90 (v/v/v), with a concentration of 0.2 mg/mL, and the administration volume was 5 mL/kg. Oral (PO) administration: the drug to be tested was dissolved in DMSO/Tween 80/0.5% CMC-Na solution at a ratio of 2:2:96 (v/v/v), with a concentration of 1 mg/mL, and the administration volume was 10 mL/kg.
Male SD rats weighing 180-280g, 3 rats in each group, fasted for 12h before the experiment, had free access to water, and ate uniformly 4 h after administration. In the IV group, the rat tail vein was administered with a dose of 1mg/kg, and blood was collected at 0.083, 0.25, 0.5, 1.0, 2.0, 4.0, 6.0, 8.0, 12 and 24 h after administration. PO group, administered by gavage at a dose of 10 mg/kg, blood was collected at 0.25, 0.5, 1.0, 2.0, 4.0, 6.0, 8.0, 12 and 24 h after administration. At the above time points, 0.2 mL of blood was collected from the jugular vein and placed in an anticoagulant tube containing EDTA-K2. […] The drug concentration in the samples was quantified using LC-MS/MS method. Relevant pharmacokinetic parameters Tmax, Cmax, AUC0-∞, t1/2, etc. were calculated using WinNonlin software.

mice [3] = assay: Marble burial test (antianxiety); assay type: in vivo; details: for number of buried marbles: test with reduced dosage (Figure 5)
Procedure: as §1
The mouse marble burial test is a behavioral assay used for the screening of antianxiety drugs. It exploits the natural digging behavior of mice in environments such as burrows or escape tunnels and is sensitive to small changes in behavior caused by genetic manipulation, disease, or drug treatment.
A 5cm thick sawdust litter was laid in a 33 cm×24 cm×28 cm carton, and 4×5 black marbles (4 cm apart) with a total of 20 black marbles of 14mm in diameter were neatly placed on the litter. The mouse was put into the carton facing the corner for 30 minutes. After 30 minutes, the mouse was carefully taken out and the number of marbles buried by the mouse was counted. If more than 2/3 of the marble was buried, it was considered a whole marble. First, a blank experiment was conducted. Before the experiment, the mouse was taken to the experimental environment to adapt. After 1 hour, the experiment began. After the experiment, the mouse was returned to the cage and the number of marbles buried by the mouse was counted. On the second day, the mouse was taken to the experimental environment to adapt for 1 hour before the drug was administered. After the drug administration, the marble burying experiment was conducted for […]. After the experiment, the mouse was carefully taken out and returned to the cage to prevent the mouse from escaping violently and affecting the experimental results. After counting, the black marbles were taken out and wiped with alcohol, and the litter was turned over again to remove the smell of the previous mouse to prevent it from affecting the experiment of the next mouse. The marbles were neatly placed for the experiment of the next mouse.

[4] = Pharmacokinetics in rats (oral and intravenous); assay type: in vivo, SD rats
Procedure: as §2
Male SD rats weighing 180-280g, 3 rats in each group, fasted for 12h before the experiment, had free access to water, and ate uniformly 4 h after administration. In the IV group, the rat tail vein was administered with a dose of 1mg/kg, and blood was collected at 0.083, 0.25, 0.5, 1.0, 2.0, 4.0, 6.0, 8.0, 12 and 24 h after administration. PO group, administered by gavage at a dose of 10 mg/kg, blood was collected at 0.25, 0.5, 1.0, 2.0, 4.0, 6.0, 8.0, 12 and 24 h after administration. At the above time points, 0.2 mL of blood was collected from the jugular vein and placed in an anticoagulant tube containing EDTA-K2. After the whole blood was collected, it was temporarily stored in an ice water bath, centrifuged at 11000 rpm for 5 min within 30min, the plasma was separated, and then frozen in a -70 °C refrigerator for testing. Tissue distribution group, oral administration, dose of 10mg/kg, 2h after drug administration, rats were anesthetized, bled through the abdominal aorta, and immediately dissected to collect brain, heart, liver, spleen, lung, kidney, colon, muscle. Part of the whole blood was collected and operated in an ice bath. The whole blood was centrifuged at 11000 rpm for 5 min within 30 min, and plasma (about 200 µL) was separated. After the tissue and plasma were collected, they were stored below -60 °C for testing. After each tissue was accurately weighed, the homogenizing reagent acetonitrile-water (1:1, v/v) was added for homogenization, wherein the raion of tissue to homogenizing reagent was 1:4 (g:mL). After homogenization, the samples were sonicated for 10 min, and the supernatant was taken after centrifugation for detection. The drug concentration in the samples was quantified using LC-MS/MS method. Relevant pharmacokinetic parameters Tmax, Cmax, AUC0-∞, t1/2, etc. were calculated using WinNonlin software.

[5] = male, SD, rat, plasma, 1 mg/kg (IV)
[6] = male, SD, rat, plasma, 10 mg/kg (PO)

- concentration in each tissue [2]: significantly higher than that in plasma
- t1/2 ([4]; 10 mg/kg (PO), 10 mg/kg): 4.88 ± 0.80 h
- F ([4]; 10 mg/kg (PO), oral bioavailability, 10 mg/kg): 62.2% and 62.2 ± 15.9%
- AUC(0-inf) [4, 5]: 1170 ± 406 ng·h/mL
- Cmax [4, 5]: 772 ± 92 ng/mL
- clearance [4, 5]: 15.4 ± 4.98 mL/min/kg
- half-life [4, 5]: 3.77 ± 2.14 h
- Vd ([4]; male, SD, rat, plasma, 1 mg/kg (IV), read-out: VSS): 2.94 ± 0.79 L/kg
- AUC(0-inf) [4, 6]: 7220 ± 1850 ng·h/mL
- Tmax [4, 6]: 0.5 h
- half-life [4, 6]: 4.88 h
- Cmax ([4]; male, rat, plasma, 10 mg/kg (PO), Mean±SD, N=3): 1600 ng/mL
SMILES: Cn1c(=O)n(CCCO)c(=O)c2c1nc(C1(F)CCC(F)(F)CC1)n2Cc1ccc(F)c(Cl)c1 [Example E68, 7-(3-chloro-4-fluorobenzyl)-1-(3-hydroxypropyl)-3-methyl-8-(1,4,4-trifluorocyclohexyl)-3,7-dihydro-1H-purine-2,6-dione]
- immobility time of mice in the tail suspension box (mice [1]; oral 0.03 mg/kg, test with reduced dosage (Figure 6), comparable to 0.1 mg/kg of HC-070): significantly reduce
- immobility time of mice (mice [1]; oral 0.1, 0.3, 1 mg/kg, before versus after administration (Figure 4)): significantly reduced
- number of buried marbles (mice [3]; oral 0.03 mg/kg): can reduce
- number of buried marbles (mice [3]; oral 0.1 mg/kg, better than the same dose of HC-070): more obvious
- number of marbles buried by mice (mice [3]; oral 0.1-1 mg/kg, before versus after administration (Figure 3)): significantly reduced
